Experimental data published in PubChem BioAssay AID1959 (Broad Institute, 2009).
Activity calls are given as the source filed them.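 How the source made its calls: active means growth-inhibition EC50 no more than tenfold above the top tested dose; inconclusive means flat fit between 30% and 70% inhibition, or unreliable fit; inactive means EC50 more than tenfold above the top tested dose.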

The molecules below were run on E. coli NEB5alpha growth, BacTiter-Glo luminescence, 4 h (assay: antibacterial activity against E. coli NEB5alpha – luminescence, counter-screen for MEX-5/POS-1 RNA-binding inhibitor project, dose response (AID 1959);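 further: pUC19-transformed ampicillin-resistant cells grown in LB with ampicillin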).

SMILES	EC50
COc1cc(C2C(C#N)=C(N)OC3=C2C(=O)CC(C)(C)C3)cc2c1OCO2 (stereo not drawn)	> 11 µM (inactive)
Cc1ccc(N2C(=O)c3cccc4c(N5CCN(C)CC5)ccc(c34)C2=O)c2cccnc12	> 11 µM (inactive)
O=C(N/N=C/c1c(O)n(CCc2ccccc2)c(=O)[nH]c1=O)c1ccccc1O	> 11 µM (inactive)
CCCn1nc(C(=O)Nc2ccc3nc(C)sc3c2)c2ccccc2c1=O	> 11 µM (inactive)
CCCCOc1c(Br)cc(/C=N/O)cc1OCC	> 11 µM (inactive)
O=C1c2ccccc2C(=O)c2c1cccc2N(CCO)CCO	> 11 µM (inactive)
Cc1cc(/C=C2\C(=O)NC(=O)N(Cc3ccco3)C2=O)c(C)n1-c1ccc(C(=O)O)cc1	> 11 µM (inactive)
Cc1ccc(NC(=O)CN2C(=O)S/C(=C\c3cccn3-c3cccc(C(=O)O)c3)C2=O)cc1C	> 11 µM (inactive)
CCOCCCn1c(=NC(C)=O)c(C#N)cc2c(=O)n3ccccc3nc21	> 11 µM (inactive)
Cc1ccc(-c2ccccc2)n1-c1cccc(C(=O)O)c1	> 11 µM (inactive)
O=C(NCc1ccncc1)C(=O)N/N=C/c1ccccn1	> 11 µM (inactive)
O=C(NCc1ccccc1)C1Nc2ccc(OC(F)(F)F)cc2C2C=CCC12 (stereo not drawn)	> 11 µM (inactive)
CC1(C)CC(=O)C2=C(C1)OC(/N=C/N1CCOCC1)=C(C#N)C2c1ccccc1 (stereo not drawn)	> 11 µM (inactive)
O=C1CSC(=S)N1N1C(=O)c2cccc([N+](=O)[O-])c2C1=O	> 11 µM (inactive)
CC1=NOC(=O)/C1=C\c1ccc2c(c1)OCO2	> 11 µM (inactive)
CC1C(=O)NN=C1C(=O)N/N=C/c1ccco1 (stereo not drawn)	> 11 µM (inactive)
COc1ccc2nc3ccccc3nc2c1NC(=O)c1ccc(Br)cc1	> 11 µM (inactive)
O=C(O)C1OC(Oc2cc3oc(-c4ccccc4)cc(=O)c3c(O)c2O)C(O)C(O)C1O (stereo not drawn)	> 11 µM (inactive)
Cc1ccc(NC(=O)/C(C#N)=C/c2ccc(C)s2)c(C)c1	> 11 µM (inactive)
O=C(N/N=C/c1c(O)n(Cc2ccco2)c(=O)[nH]c1=O)c1ccccc1O	> 11 µM (inactive)
CCN1C(=O)C(=Cc2ccc(N3CCOCC3)o2)C(=O)N(CC)C1=S	> 11 µM (inactive)
Cc1cccc(N2C(=O)/C(=C/c3ccc(N4CCN(C)CC4)o3)C(=O)NC2=S)c1C	> 11 µM (inactive)
O=C(/C=C(\O)c1ccccc1)C(=O)NNC(=O)c1ccccc1[N+](=O)[O-]	> 11 µM (inactive)
CC1(OC(=O)c2cnc3ccccc3n2)C(=O)C=C2C=C(C3CC3)OC=C2C1=O (stereo not drawn)	> 11 µM (inactive)
Cc1ccc(Cl)c2c(N=Nc3ccccc3)c(O)[nH]c12	> 11 µM (inactive)
CCOC(=O)c1c[nH]c2nc(C)ccc2c1=O	> 11 µM (inactive)
COc1ccc(/C=C2\CCCC(C(=O)C(F)(F)F)=C2O)cc1	> 11 µM (inactive)
COC(=O)c1ccc(C23CC4(C2)[C@H](CN(Cc2ccc(C(F)(F)F)cc2)[C@@H]4c2ccccc2)C3c2ccccc2)cc1 (stereo partly drawn)	> 11 µM (inactive)
